Biological target: T1, Interleukin-1 receptor-associated kinase 4 (Homo sapiens, UniProt Q9NWZ3)
T1 sequence (Q9NWZ3 whole entry): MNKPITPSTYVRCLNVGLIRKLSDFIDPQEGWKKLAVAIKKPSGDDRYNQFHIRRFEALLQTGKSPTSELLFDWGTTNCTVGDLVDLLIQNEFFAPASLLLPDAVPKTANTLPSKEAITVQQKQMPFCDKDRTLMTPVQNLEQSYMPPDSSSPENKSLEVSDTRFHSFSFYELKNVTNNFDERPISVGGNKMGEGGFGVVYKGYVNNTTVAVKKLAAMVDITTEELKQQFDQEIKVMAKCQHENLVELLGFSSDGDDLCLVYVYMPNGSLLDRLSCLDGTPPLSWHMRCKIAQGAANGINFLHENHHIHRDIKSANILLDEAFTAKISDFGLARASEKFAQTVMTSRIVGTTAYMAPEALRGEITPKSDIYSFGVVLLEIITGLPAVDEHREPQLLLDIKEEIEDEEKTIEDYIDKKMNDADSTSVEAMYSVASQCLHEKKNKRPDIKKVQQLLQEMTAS
Experiment: IRAK4 Kinase Assay: For the assay, 11 different concentrations in the range from 20 μM to 0.073 nM were prepared from a 2 mM DMSO solution of the test substance. 50 nl of the respective solution were pipetted into a black low-volume 384-well microtitre plate (Greiner Bio-One, Frickenhausen, Germany), 2 μl of a solution of IRAK4 in assay buffer [50 mM HEPES pH 7.5, 5 mM MgCl2, 1.0 mM …

COCCn1cc2cc(NC(=O)c3cccc(C(F)(F)F)n3)c(CO)cc2n1
IC50: 136 nM

— ChEMBL document CHEMBL5727056, “Substituted indazoles, methods for the production thereof, pharmaceutical preparations that contain said new substituted indazoles, and use of said new substituted indazoles to produce drugs” (2019)
